The subject of test [1] is UMUC9 cells. Kind of test: Proliferation UMUC9 H2B-GFP assay (Incucyte). The test is classed as cell-based. The settings on record: 7 days of treatment; for Emax: UM-UC-9, 168 h, % efficacy (span); for IC50: UM-UC-9, relative IC50, Day 1 subtracted, percentage of DMSO control. As for the experimental part: Proliferation UMUC9 H2B-GFP assay
Instrument: Incucyte® (Sartorius).
Description: Incucyte® Proliferation Assay measures cell proliferation based on nuclei count using live-cell time-lapse imaging. […] Measurements were performed on the day of treatment (Day 1 reading) and after 7 days of treatment (Day 8 reading). Green fluorescence in cell nuclei is measured using the instrument (Image Channels: Phase, Green; Acquisition time: 300 ms; Magnification: 4×).
Analysis: Selected metrics for analysis: Phase Object Confluence (Percent), Nuclei Count (1/Well) and Total Nuclei Area (μm^2/Well). Day 1 measurements were subtracted from each Day 8 measurement and expressed as percentage of the vehicle (DMSO) control. Percentage proliferation values were then plotted against compound concentration using GraphPad PRISM software. The Sigmoidal 4PL X is log (concentration) model of […] was used. Relative IC50 values and % efficacy (span) is reported below.

Test [2] concerns the target T1, PPARG receptors (Homo sapiens, UniProt P37231).
T1 construct: leading to PPARG dependent expression of the NanoLuc@ Luciferase; endogenous in cells
T1 sequence (P37231 1-505): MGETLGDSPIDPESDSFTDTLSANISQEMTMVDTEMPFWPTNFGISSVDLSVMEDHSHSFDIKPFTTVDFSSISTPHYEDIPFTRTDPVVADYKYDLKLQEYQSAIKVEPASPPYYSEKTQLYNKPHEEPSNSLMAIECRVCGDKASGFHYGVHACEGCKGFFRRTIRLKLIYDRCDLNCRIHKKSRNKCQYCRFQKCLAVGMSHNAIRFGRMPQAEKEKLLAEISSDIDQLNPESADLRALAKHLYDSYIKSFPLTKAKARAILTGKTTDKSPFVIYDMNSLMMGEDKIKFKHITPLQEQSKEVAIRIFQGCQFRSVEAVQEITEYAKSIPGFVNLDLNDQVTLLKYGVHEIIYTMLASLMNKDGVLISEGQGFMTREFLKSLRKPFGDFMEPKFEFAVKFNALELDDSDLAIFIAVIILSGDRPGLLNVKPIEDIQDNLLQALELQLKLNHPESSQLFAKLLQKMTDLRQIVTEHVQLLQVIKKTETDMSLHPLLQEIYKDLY
Kind of test: RT-112-FABP4-NLuc Reporter Gene Assay (inverse agonism). The test is classed as cell-based. Particulars: incubated over night; for IC50: PPARG_RT-112_FABP4_NLuc_inverse agonist IC50 - [mol/l], bladder cancer cell line RT-112/84, NanoLuc in FABP4 3′ UTR, 50 μM to 0.03 nM; for Emax: RT112/84, read-out: PPARG_RT-112_FABP4_NLuc_inverse agonist Efficacy - [%], bladder cancer cell line RT-112/84, NanoLuc in FABP4 3′ UTR. The procedure: Inverse agonists reduce the basal expression of the Luciferase resulting in a decrease of the Luciferase signal after addition of substrate and cell lysis. To exclude toxic effects of the compounds a parallel measurement of cell viability was performed based on the CellTiter Glo Assay (Promega).
On the next day 10 μl of test compounds dissolved in DMEM/F12 2% FBS and 0,01% BSA are placed in the wells of the microtiter plates. Final concentrations ranged from 50 μM to 0.03 nM. […] On the next day the NanoLuc Luciferase activity was measured by addition of 40 μl of NanoLuc substrate and lysis buffer (Promega, Madison, Wisconsin) diluted in 2 mM Ca-tyrode buffer (20 mM HEPES, 130 mM NaCl, 5 mM KCl, 5 mM NaHCO3, 2 mM MgCl2, pH 7,4). The resulting light signal was measured for 60 seconds in a luminometer. Every sample was tested in quadruples and mean values were used to calculate the IC50 values and efficacies of the compounds.
On the technique in general: Reporter assays use an easily measured gene product as a stand-in for the process of interest.

Broadly, the IC50 is the concentration that gives 50% inhibition. In test [1], `O=C(NCc1ccc(F)c(F)c1)c1cc(C(=O)Nc2ccc(N3CCOCC3)cc2)c(Cl)cc1F` [Example 35, 4-chloro-N^1-(3,4-difluorobenzyl)-6-fluoro-N^3-(4-morpholinophenyl)isophthalamide] yielded an Emax of 92.3% and an IC50 of 182 nM. Further, in test [2], the IC50 came to 21.5 nM and the Emax was found to be 102%.

In the case of `O=C(NCc1ccc(F)cc1)c1cc(C(=O)Nc2ccc3oc(-c4cccc(Cl)c4)nc3c2)c(Cl)cc1F` [Example 22, 4-chloro-N^3-[2-(3-chlorophenyl)-1,3-benzoxazol-5-yl]-6-fluoro-N^1-[(4-fluorophenyl)methyl]benzene-1,3-dicarboxamide], the Emax in test [1] is 86.6%; in test [2], 106%. For the same compound, the values for the IC50 in test [1] and in test [2] were 21.6 nM and 1.3 nM, respectively.

In test [1], `O=C(NCc1ccc(F)c(F)c1)c1cc(Cl)c(Cl)c(C(=O)Nc2ccc(C3CC3)cn2)c1` [Example 14, 4,5-dichloro-N^3-(5-cyclopropylpyridin-2-yl)-N^1-[(3,4-difluorophenyl)methyl]benzene-1,3-dicarboxamide] had an Emax of 85% and an IC50 of 1570 nM. In addition, in test [2], the IC50 was 0.42 nM and the Emax is 82.5%.

As for `Cc1cc(N2CCOCC2)cnc1NC(=O)c1cc(C(=O)NCc2ccc(F)c(F)c2)c(F)c(C)c1Cl` [Example 18, 4-chloro-N^1-[(3,4-difluorophenyl)methyl]-6-fluoro-5-methyl-N^3-[3-methyl-5-(morpholin-4-yl)pyridin-2-yl]benzene-1,3-dicarboxamide], in test [1], the Emax stood at 59.5% and the IC50 was determined as 31 nM. Further, in test [2], the IC50 was found to be 1.35 nM and the Emax was determined as 95%.

In the case of `Cc1noc(-c2ccc(NC(=O)c3cc(C(=O)NCc4ccc(F)cc4)c(F)cc3Cl)cc2)n1` [Example 23, 4-chloro-6-fluoro-N^1-[(4-fluorophenyl)methyl]-N^3-[4-(3-methyl-1,2,4-oxadiazol-5-yl)phenyl]benzene-1,3-dicarboxamide], in test [1], the Emax turned out to be 54% and the IC50 was determined as 3.77 nM. In test [2], the IC50 was determined as 0.815 nM and the Emax is 148%.

In test [1], `O=C(NCc1ccccc1)c1cc(Cl)c(Cl)c(C(=O)Nc2ccc(C3COC3)cc2)c1F` [Example 33, N^1-benzyl-4,5-dichloro-2-fluoro-N3-[4-(oxetan-3-yl)phenyl]benzene-1,3-dicarboxamide] had an Emax of 59.8% and an IC50 of 4.91 nM. In addition, in test [2], the IC50 is 1.05 nM and the Emax was found to be 94%.

For the compound `Cc1cc(OC(F)F)ccc1NC(=O)c1cc(C(=O)NCc2ccccc2O)c(F)cc1Cl` [Example 1, 4-chloro-N^3-[4-(difluoromethoxy)-2-methylphenyl]-6-fluoro-N′-[(2-hydroxyphenyl)methyl]benzene-1,3-dicarboxamide], in test [1], the Emax came out at 51.4% and the IC50 is 2.89 nM. Further, in test [2], the IC50 was 3.8 nM and the Emax came to 83.5%.

On to `Cc1cc(OCCO)ccc1NC(=O)c1cc(C(=O)NCc2ccc(F)c(F)c2)cc(Cl)c1Cl` [Example 8, 4,5-dichloro-N^1-[(3,4-difluorophenyl)methyl]-N^3-[4-(2-hydroxyethoxy)-2-methylphenyl]benzene-1,3-dicarboxamide], for which, in test [1], the Emax is 71.5% and the IC50 worked out at 32.2 nM. In test [2], the IC50 is 0.9 nM and the Emax stood at 96%.

Consider `O=C(NCc1ccc(F)c(F)c1)c1cc(C(=O)Nc2cnc(Oc3ccccc3)cn2)c(Cl)cc1F` [Example 36, 4-chloro-N^1-(3,4-difluorobenzyl)-6-fluoro-N^3-(5-phenoxypyrazin-2-yl)isophthalamide], for which, in test [1], the Emax stood at 66% and inhibition was half-maximal at 5.98 nM (IC50). Also, in test [2], the 50% inhibitory concentration (IC50) came to 1.26 nM and the Emax came to 97.5%.

Take `Cc1cccc(-c2nc3cc(NC(=O)c4cc(C(=O)NCc5ccc(F)cc5)cc(Cl)c4Cl)ccc3o2)c1` [Example 9, 4,5-dichloro-N^1-[(4-fluorophenyl)methyl]-N^3-[2-(3-methylphenyl)-1,3-benzoxazol-5-yl]benzene-1,3-dicarboxamide]: the Emax was 58.1% in test [1] and 105% in test [2]. For the same compound, the figures for the IC50 in test [1] and in test [2] were 4.51 nM and 0.355 nM, respectively.
